What was measured:
[1] = target: soluble form of TACE (TACE R651) (Homo sapiens, UniProt P78536); assay: Enzyme inhibition kinetic study, TACE; type: biochemical; conditions: 0.5 nM TACE, pH 9.0, 1 mM NaCl; for Inhibition of TACE activity (in words): FIG. 2B
Method: FIG. 2. Inhibition of MMP and TACE by N-TIMP-3 and its mutants. A. Inhibition of MMP-14(CD) by wild-type and mutated N-TIMP-3. Open circles, wild-type N-TIMP-3; closed circles, T2G; and open squares, -1A. B. Comparison of the inhibition of TACE by wild-type N-TIMP-3, N-TIMP-1 and TAPI-2. The inhibitors were incubated with 0.5 nM TACE for 3 hr at room temperature, and the residual enzyme activity was measured with 10 μM Substrate III (R&D Systems). […] Open circles, N-TIMP-3; closed circles, TAPI-2; and open squares, N-TIMP-1. C. Inhibition of TACE (0.5 nM) by wild-type and mutated N-TIMP-3. Open circles, wild-type inhibitor; closed circles, T2G; and open squares, -1A.
Enzyme inhibition kinetic studies—Inhibition kinetic studies for MMPs and TACE were carried out as described previously (19, 27) with modifications. Purified N-TIMP-3 and mutants were dialyzed against 20 mM Tris-HCl (pH 7.0), 50 mM NaCl containing 20% glycerol, centrifuged at 14,000 rpm for 10 min to remove any precipitate, and protein concentration was re-measured before conducting inhibition assays. Since NaCl inhibits the activity of the TACE ectodomain in vitro (28), we adjusted the final concentration of NaCl to 1 mM in all assays with TACE. Equal volumes (10% of total assay volume) of diluted solutions of N-TIMP-3 and mutants were added to TACE assays, resulting in a final pH of 8.8.
where v is the experimentally determined reaction velocity, v0 is the uninhibited activity, E is enzyme concentration, I is inhibitor concentration, K is the apparent inhibition constant (Ki^(app)) and h is the Hill coefficient.
The inhibitory activities of the mutants were also compared with that of wild-type N-TIMP-3 against a soluble form of TACE in which the transmembrane and C-terminal cytoplasmic domains are deleted (TACE R651; (28)). […] The inhibition curve of TACE by wild-type N-TIMP-3 is sigmoid, in striking contrast with the inhibition by TAPI-2 and with the inhibition of MMPs by N-TIMP-3 and N-TIMP-1 (FIGS. 2A, 2B; (31)). Sigmoid inhibition curves were also obtained for TACE with the T2G and -1A mutants of N-TIMP-3 (FIG. 2C).

[2] = test system: porcine articular cartilage; assay: IL-1α-stimulated porcine articular cartilage degradation, GAG release (DMMB); type: cell-based; conditions: IL-1α 10 ng/ml, 3 days
Method: FIG. 7. Inhibition of IL-1a stimulated porcine articular cartilage degradation by N-terminal mutants of N-TIMP-3. Porcine articular cartilage pieces were cultured for three days. Cartilage was stimulated with IL-1α (10 ng/ml) with TIMPs at the concentrations indicated. Glycosaminoglycan (GAG) release in the media was measured by dimethyl methylene blue (DMMB).
Porcine articular cartilage from the metacarpophalangeal joints of 3-9 month old pigs is dissected into small shavings approximately 3 mm long and 2-3 mm wide. After dissection, the cartilage is allowed to rest for 24 h at 37° C. under 5% CO2 in DMEM containing penicillin-streptomycin, amphotericin B, and 5% fetal calf serum. The medium is then replaced with fresh media and the cartilage is rested for a further 24-48 h. […]
GAG released into the conditioned media is measured in duplicate using a modification of the dimethylmethylene blue (DMMB) assay as described in Farndale et al.. […] The % of total GAG released into the medium is calculated as follows: % of total GAG released=(total GAG in the medium)/(total GAG in the medium+total GAG remaining in the cartilage).
Porcine articular cartilage pieces were cultured for 3 days. […] Glycosaminoglycan (GAG) release in the media was measured by dimethyl methylene blue (DMMB).

[3] = test system: aggrecanase activity in IL-1α- and retinoic acid-stimulated cartilage; assay: Aggrecanase-generated aggrecan fragments in cartilage conditioned media, Western analysis; type: cell-based; conditions: 1 μM
Excerpt: Aggrecan fragments released into the conditioned medium are deglycosylated by digestion with chondroitinase ABC and keratanase and the samples are subjected to SDS/PAGE and Western blotting analysis as described by Little et al.. The primary antibodies used to detect aggrecanase-generated and MMP-generated aggrecan fragments are BC-3 and BC-14, respectively. Antigen-antibody complexes are detected by anti-mouse AP-linked donkey antibody and the AP substrate.
Conditioned media from the above experiments were analyzed by monoclonal antibodies that recognize either the aggrecanase-generated aggrecan neoepitope ARGSV or the MMP-generated aggrecan neoepitope FFGVG. In concordance with GAG release, there was an increase in the amount of aggrecanase-generated aggrecan fragments released upon treatment with either stimulus, but no MMP-generated fragments were detected.

[4] = test system: bovine nasal cartilage explants; assay: IL-1α-stimulated bovine nasal cartilage explants, GAG release; type: cell-based; conditions: 3 days
Method: (§1) GAG released into the conditioned media is measured in duplicate using a modification of the dimethylmethylene blue (DMMB) assay as described in Farndale et al.. Shark chondroitin sulfate (0-2.62 μg) is used as standard. The % of total GAG released into the medium is calculated as follows: % of total GAG released=(total GAG in the medium)/(total GAG in the medium+total GAG remaining in the cartilage).
Bovine nasal cartilage explants were stimulated with IL-1α in the presence or absence of N-TIMP-1, TIMP-2, or N-TIMP-3 for 3 days.

[5] = test system: porcine articular cartilage; assay: Retinoic acid-stimulated porcine articular cartilage, GAG release; type: cell-based
Method: Porcine articular cartilage from the metacarpophalangeal joints of 3-9 month old pigs is dissected into small shavings approximately 3 mm long and 2-3 mm wide. After dissection, the cartilage is allowed to rest for 24 h at 37° C. under 5% CO2 in DMEM containing penicillin-streptomycin, amphotericin B, and 5% fetal calf serum. The medium is then replaced with fresh media and the cartilage is rested for a further 24-48 h. Each cartilage piece is then placed in one well of a round bottom 96-well plate with 200 μl of serum-free DMEM with or without 10-100 ng/ml IL-1α or 1 μM retinoic acid and various concentrations of each TIMP-3 mutant. After 3 days, all of the conditioned media are harvested and stored at −20° C. until use.
as §1

[6] = test system: THP-1 cells; assay: Inhibition of TNF-α shedding from THP-1 cells (ELISA); type: cell-based, human; conditions: 100 ng/ml PMA, 6 h, 50 to 500 nM
Method: FIG. 3. Effects of mutations in N-TIMP-3 on inhibition of cellular shedding of TNF-α. THP-1 cells (2.5×10^6/ml) growing in serum-free RPMI-1640 medium were stimulated with 100 ng/ml PMA for 20 min before adding various concentrations of N-TIMP-3 (wild-type and mutants). Cells were allowed to grow for another 6 hr and conditioned media were collected for the ELISA assays.
Inhibition of TNF-α shedding from THP-1 cells—All TIMP solutions were dialyzed against 20 mM Tris-HCl (pH 7.0), 150 mM NaCl and 20% glycerol before use. Human monocyte THP-1 cells cultured in RPMI-1640 medium supplemented with 5% fetal calf serum were harvested, extensively washed and reseeded into serum-free medium at 2.5×10^6 cells/ml. […] The amount of soluble TNF-α released into the medium was measured using sandwich enzyme-linked immunosorbent assay, as described by Engelberts et al. (30) with modifications. The released TNF-α was absorbed to microtiter plates coated with mouse monoclonal anti-human TNF-α antibody BD551220 (1:200 dilution), and the bound TNF-α was detected using biotinylated mouse monoclonal anti-human TNF-α: antibody BD554511 (1:500 dilution) and streptavidin conjugated with horse radish peroxidase, and 3,3′,5,5′-tetramethylbenzidine as peroxidase substrate (KPL, Guildford, UK). The plates were read at 450 nm with an ELX808 plate reader (BIO-TEK Instruments Inc). […]

Sequence of soluble form of TACE (TACE R651) (P78536 215-651): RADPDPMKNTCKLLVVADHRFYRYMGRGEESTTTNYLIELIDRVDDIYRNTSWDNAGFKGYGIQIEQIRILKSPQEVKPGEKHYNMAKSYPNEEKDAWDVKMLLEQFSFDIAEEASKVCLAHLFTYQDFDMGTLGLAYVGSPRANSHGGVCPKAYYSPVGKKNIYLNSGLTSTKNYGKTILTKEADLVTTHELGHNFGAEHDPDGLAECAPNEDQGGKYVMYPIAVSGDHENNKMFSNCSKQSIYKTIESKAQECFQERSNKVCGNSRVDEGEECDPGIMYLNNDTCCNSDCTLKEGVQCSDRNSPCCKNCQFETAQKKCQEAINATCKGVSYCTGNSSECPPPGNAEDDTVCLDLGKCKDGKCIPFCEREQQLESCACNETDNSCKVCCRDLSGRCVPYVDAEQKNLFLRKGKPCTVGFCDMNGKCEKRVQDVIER

Inhibition of TACE activity (in words) [1]	h (Hill coefficient) for TACE inhibition ([1]; Table II, fit with equation 3)	Ki ([1]; Table II, fit with equation 3, read-out: Ki(app) TACE)	Molecule	Inhibition of IL-1α stimulated cartilage degradation (GAG release) [2]	Release of aggrecanase-generated aggrecan fragments [3]	Inhibition of IL-1α-stimulated GAG release [4]	Inhibition of retinoic acid-stimulated GAG release [5]	Inhibition of PMA-stimulated release of TNF-α [6]
effectively inhibited	1	4.28 ± 0.001 nM	CC(C)CC(CC(=O)NO)C(=O)NC(C(=O)NC(C)C(=O)NCCN)C(C)(C)C (stereo not drawn) [TAPI-2, HONHCOCH2CH(CH2CH(CH3)2)—CO-t-Butyl-Gly-Ala-NHCH2CH2NH2, reference compound]	–	–	–	–	–
–	–	–	TIMP-1: tissue inhibitor of metalloproteinases-1 [reference compound]	did not	–	–	–	–
minimal inhibitory activity	–	–	N-TIMP-1: N-terminal inhibitory domain of TIMP-1, expressed in E. coli and folded in vitro [reference compound]	–	not effective	not effective even at the concentration of 1 μM	did not inhibit	no effect

Reference: patent publication US20090318342A1, “Compounds” (IMPERIAL INNOVATIONS LIMITED, priority 2005, published 2009)
